From ChEMBL document CHEMBL3045335, “Synthesis, antimicrobial, and antioxidant activities of some new indole analogues containing pyrimidine and fused pyrimidine systems” (Med Chem Res, 2012)
Converted amounts (≈) assume the structure as drawn.

What was measured:
Assay type in all cases: functional
Aspergillus terreus = experiment: Antifungal activity against Aspergillus terreus at 1 mg/ml after 72 hr by agar well diffusion method; conditions: read-out: IZ
Staphylococcus aureus = experiment: Antibacterial activity against Staphylococcus aureus at 1 mg/ml after 24 hr by agar well diffusion method; conditions: for zone of inhibition at 1000 µg/mL: read-out: IZ
Aspergillus niger = experiment: Antifungal activity against Aspergillus niger at 1 mg/ml after 72 hr by agar well diffusion method; conditions: read-out: IZ
Pseudomonas aeruginosa = experiment: Antibacterial activity against Pseudomonas aeruginosa at 1 mg/ml after 24 hr by agar well diffusion method; conditions: for zone of inhibition at 1000 µg/mL: read-out: IZ
Klebsiella pneumoniae = experiment: Antibacterial activity against Klebsiella pneumoniae at 1 mg/ml after 24 hr by agar well diffusion method; conditions: for zone of inhibition at 1000 µg/mL: read-out: IZ
Aspergillus oryzae = experiment: Antifungal activity against Aspergillus oryzae at 1 mg/ml after 72 hr by agar well diffusion method; conditions: read-out: IZ
[1] = test system: Radical scavenging activity; experiment: Antioxidant activity assessed as DPPH radical scavenging activity by spectrophotometric analysis
[2] = test system: Radical scavenging activity; experiment: Antioxidant activity assessed as DPPH radical scavenging activity at 100 ug/ml by spectrophotometric analysis

Row | Compound | zone of inhibition at 1000 µg/mL (Aspergillus terreus) | zone of inhibition at 1000 µg/mL (Staphylococcus aureus) | zone of inhibition at 1000 µg/mL (Aspergillus niger) | zone of inhibition at 1000 µg/mL (Pseudomonas aeruginosa) | zone of inhibition at 1000 µg/mL (Klebsiella pneumoniae) | zone of inhibition at 1000 µg/mL (Aspergillus oryzae) | IC50 [1] | Activity [2] | inhibition zone (IZ) (Staphylococcus aureus) | inhibition zone (IZ) (Pseudomonas aeruginosa) | inhibition zone (IZ) (Klebsiella pneumoniae)
1 | N#Cc1c(-c2c(-c3ccccc3)[nH]c3ccc(Cl)cc23)[nH]c(=S)[nH]c1=S | 10 mm | 12 mm | 11 mm | 10 mm | 9 mm | 11 mm | – | – | – | – | –
2 | N#Cc1c(NN)nc(NN)nc1-c1c(-c2ccccc2)[nH]c2ccc(Cl)cc12 | 10 mm | 11 mm | 8 mm | 13 mm | 10 mm | 10 mm | – | – | – | – | –
3 | Cc1ccc2[nH]c(-c3ccccc3)c(-c3nc(NN)nc4[nH]nc(N)c34)c2c1 | 10 mm | 11 mm | 10 mm | 12 mm | 13 mm | 9 mm | – | – | – | – | –
4 | N#Cc1c(-c2c(-c3ccccc3)[nH]c3ccc(Cl)cc23)n2nnnc2n2nnnc12 | 11 mm | 14 mm | 13 mm | 12 mm | 13 mm | 10 mm | – | – | – | – | –
5 | N#Cc1c(-c2c(-c3ccccc3)[nH]c3ccccc23)[nH]c(=S)[nH]c1=S | 11 mm | 8 mm | 11 mm | 7 mm | 8 mm | 10 mm | – | – | – | – | –
6 | OC(Cn1cncn1)(Cn1cncn1)c1ccc(F)cc1F [FLUCONAZOLE] | 15 mm | – | 14 mm | – | – | 14 mm | – | – | – | – | –
7 | Cc1ccc2[nH]c(-c3ccccc3)c(-c3c(C#N)c4nnnn4c4nnnn34)c2c1 | 12 mm | 10 mm | 9 mm | 10 mm | 11 mm | 9 mm | – | – | – | – | –
8 | N#Cc1c(-c2c(-c3ccccc3)[nH]c3ccccc23)[nH]c(=S)[nH]c1=O | 10 mm | 11 mm | 10 mm | 11 mm | 12 mm | 10 mm | – | – | – | – | –
9 | Cc1ccc2[nH]c(-c3ccccc3)c(-c3[nH]c(=S)[nH]c(=O)c3C#N)c2c1 | 11 mm | 12 mm | 13 mm | 10 mm | 11 mm | 11 mm | – | – | – | – | –
10 | N#Cc1c(-c2c(-c3ccccc3)[nH]c3ccccc23)n2nnnc2n2nnnc12 | 10 mm | 14 mm | 10 mm | 14 mm | 12 mm | 7 mm | – | – | – | – | –
11 | NNc1nc(-c2c(-c3ccccc3)[nH]c3ccccc23)c2c(N)n[nH]c2n1 | 10 mm | 12 mm | 12 mm | 11 mm | 12 mm | 12 mm | – | – | – | – | –
12 | Cc1ccc2[nH]c(-c3ccccc3)c(-c3[nH]c(=S)[nH]c(=S)c3C#N)c2c1 | 10 mm | 9 mm | 9 mm | 10 mm | 8 mm | 9 mm | – | – | – | – | –
13 | CC(C)(C)c1cc(O)ccc1O [E319] | – | – | – | – | – | – | 14.46 µg/mL (≈ 87 µM) | – | – | – | –
14 | NNc1nc(-c2c(-c3ccccc3)[nH]c3ccc(Cl)cc23)c2c(N)n[nH]c2n1 | 10 mm | 13 mm | 9 mm | 13 mm | 9 mm | 13 mm | – | – | – | – | –
15 | Cc1ccc2[nH]c(-c3ccccc3)c(-c3nc(NN)nc(NN)c3C#N)c2c1 | 11 mm | 10 mm | 11 mm | 10 mm | 12 mm | 9 mm | – | – | – | – | –
16 | COc1ccc(O)c(C(C)(C)C)c1.COc1ccc(O)cc1C(C)(C)C [BUTYLATED HYDROXYANISOLE] | – | – | – | – | – | – | 14.35 µg/mL | – | – | – | –
17 | N#Cc1c(NN)nc(NN)nc1-c1c(-c2ccccc2)[nH]c2ccccc12 | 11 mm | 8 mm | 10 mm | 10 mm | 11 mm | 10 mm | – | – | – | – | –
18 | N#Cc1c(-c2c(-c3ccccc3)[nH]c3ccc(Cl)cc23)[nH]c(=S)[nH]c1=O | 9 mm | 14 mm | 10 mm | 10 mm | 14 mm | 12 mm | 16.43 µg/mL (≈ 43.4 µM) | 79.7% | – | – | –
19 | GENTAMICIN | – | – | – | – | – | – | – | – | 15 mm | 16 mm | 15 mm
